Measured values as given in patent US20260217703A1, “INHIBITORS OF a-HEMOL YSIN OF STAPHYLOCOCCUS AUREUS” (HELMHOLTZ-ZENTRUM FÜR INFEKTIONSFORSCHUNG GMBH, priority 2022, published 2026).
pIC50: −log10 of the molar value.

Assays:
[1] = biological target: hemolysin alpha from Staphylococcus aureus (Staphylococcus aureus, UniProt P09616); assay: cell-based
[2] = biological target: S. aureus Alpha hemolysin (Staphylococcus aureus, UniProt P09616); assay: cell-based
Sequence of S. aureus Alpha hemolysin (P09616 27-319 limits assumed): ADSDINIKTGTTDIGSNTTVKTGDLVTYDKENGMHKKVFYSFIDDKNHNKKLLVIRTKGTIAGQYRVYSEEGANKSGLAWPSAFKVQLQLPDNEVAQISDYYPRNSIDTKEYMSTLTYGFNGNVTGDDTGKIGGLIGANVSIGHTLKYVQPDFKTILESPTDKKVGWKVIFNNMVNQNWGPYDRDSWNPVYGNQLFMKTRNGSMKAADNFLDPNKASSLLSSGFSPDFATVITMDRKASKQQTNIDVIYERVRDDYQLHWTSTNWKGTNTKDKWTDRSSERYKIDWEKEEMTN

Sequence of hemolysin alpha from Staphylococcus aureus (P09616 27-319 limits assumed): as above

Compound	pIC50 [1]	pIC50 [2]
Cc1cc2[nH]c(=O)c(=O)[nH]c2nc1S(=O)(=O)Nc1ccc(-c2ccc(F)cc2)c(Cl)c1 [Compound 9, N-(2-chloro-4′-fluoro-[1,1′-biphenyl]-4-yl)-7-methyl-2,3-dioxo-1,2,3,4-tetrahydropyrido[2,3-b]pyrazine-6-sulfonamide]	> 7.52	6.00 to 7.00
Cc1cc2[nH]c(=O)c(=O)[nH]c2nc1S(=O)(=O)Nc1ccc(-c2ccc(F)c(Cl)c2)c(Cl)c1 [Compound 10, N-(2,3′-dichloro-4′-fluoro-[1,1′-biphenyl]-4-yl)-7-methyl-2,3-dioxo-1,2,3,4-tetrahydropyrido[2,3-b]pyrazine-6-sulfonamide]	7.00 to 7.52	5.22 to 6.00
Cc1cc2[nH]c(=O)c(=O)[nH]c2nc1S(=O)(=O)Nc1ccc(-c2cncc(Cl)c2)c(Cl)c1 [Compound 11, N-(3-chloro-4-(5-chloropyridin-3-yl)phenyl)-7-methyl-2,3-dioxo-1,2,3,4-tetrahydropyrido[2,3-b]pyrazine-6-sulfonamide]	6.00 to 7.00	6.00 to 7.00
Cc1cc2[nH]c(=O)c(=O)[nH]c2nc1S(=O)(=O)Nc1cnc(-c2ccc(F)cc2)c(Cl)c1 [Compound 12, N-(5-chloro-6-(4-fluorophenyl)pyridin-3-yl)-7-methyl-2,3-dioxo-1,2,3,4-tetrahydropyrido[2,3-b]pyrazine-6-sulfonamide]	7.00 to 7.52	5.22 to 6.00
Cc1cc2[nH]c(=O)c(=O)[nH]c2nc1S(=O)(=O)Nc1cnc(-c2cncc(Cl)c2)c(Cl)c1 [Compound 13, N-(3,5′-dichloro-[2,3′-bipyridin]-5-yl)-7-methyl-2,3-dioxo-1,2,3,4-tetrahydropyrido[2,3-b]pyrazine-6-sulfonamide]	5.46 to 6.00	–
COc1ccc(-c2ccc(NS(=O)(=O)c3nc4[nH]c(=O)c(=O)[nH]c4cc3C)cc2Cl)cc1F [Compound 14, N-(2-chloro-3′-fluoro-4′-methoxy-[1,1′-biphenyl]-4-yl)-7-methyl-2,3-dioxo-1,2,3,4-tetrahydropyrido[2,3-b]pyrazine-6-sulfonamide]	7.00 to 7.52	6.00 to 7.00
Cc1nc2cc(-c3ccc(NS(=O)(=O)c4nc5[nH]c(=O)c(=O)[nH]c5cc4C)cc3Cl)ccc2o1 [Compound 15, N-(3-chloro-4-(2-methylbenzo[d]oxazol-5-yl)phenyl)-7-methyl-2,3-dioxo-1,2,3,4-tetrahydropyrido[2,3-b]pyrazine-6-sulfonamide]	> 7.52	7.00 to 7.52
Cc1cc2[nH]c(=O)c(=O)[nH]c2nc1S(=O)(=O)Nc1ccc(-c2ccc3cc[nH]c3c2)c(Cl)c1 [Compound 16, N-(3-chloro-4-(1H-indol-6-yl)phenyl)-7-methyl-2,3-dioxo-1,2,3,4-tetrahydropyrido[2,3-b]pyrazine-6-sulfonamide]	> 7.52	6.00 to 7.00
Cc1cc2[nH]c(=O)c(=O)[nH]c2nc1S(=O)(=O)Nc1ccc(-c2ccc(C#N)cc2)c(Cl)c1 [Compound 17, N-(2-chloro-4′-cyano-[1,1′-biphenyl]-4-yl)-7-methyl-2,3-dioxo-1,2,3,4-tetrahydropyrido[2,3-b]pyrazine-6-sulfonamide]	7.00 to 7.52	6.00 to 7.00
Cc1cc(NS(=O)(=O)c2nc3[nH]c(=O)c(=O)[nH]c3cc2C)ccc1Br [Compound 18, N-(4-bromo-3-methylphenyl)-7-methyl-2,3-dioxo-1,2,3,4-tetrahydropyrido[2,3-b]pyrazine-6-sulfonamide]	6.00 to 7.00	6.00 to 7.00
Cc1cc2[nH]c(=O)c(=O)[nH]c2nc1S(=O)(=O)Nc1ccc(C(C)C)cc1 [Compound 19, N-(4-isopropylphenyl)-7-methyl-2,3-dioxo-1,2,3,4-tetrahydropyrido[2,3-b]pyrazine-6-sulfonamide]	6.00 to 7.00	6.00 to 7.00
Cc1cc2[nH]c(=O)c(=O)[nH]c2nc1S(=O)(=O)Nc1ccc(C2=CCCCC2)cc1 [Compound 20, 7-methyl-2,3-dioxo-N-(2′,3′,4′,5′-tetrahydro-[1,1′-biphenyl]-4-yl)-1,2,3,4-tetrahydropyrido[2,3-b]pyrazine-6-sulfonamide]	6.00 to 7.00	6.00 to 7.00
Cc1cc2[nH]c(=O)c(=O)[nH]c2nc1S(=O)(=O)Nc1ccc(C2CCC2)cc1 [Compound 21, N-(4-cyclobutylphenyl)-7-methyl-2,3-dioxo-1,2,3,4-tetrahydropyrido[2,3-b]pyrazine-6-sulfonamide]	> 7.52	7.00 to 7.52
Cc1cc2[nH]c(=O)c(=O)[nH]c2nc1S(=O)(=O)Nc1ccc(OC(F)(F)F)cc1 [Compound 22, 7-methyl-2,3-dioxo-N-(4-(trifluoromethoxy)phenyl)-1,2,3,4-tetrahydropyrido[2,3-b]pyrazine-6-sulfonamide]	> 7.52	> 7.52
Cc1cc2[nH]c(=O)c(=O)[nH]c2nc1S(=O)(=O)Nc1ccc(C23CC(C2)C3)cc1 [Compound 23, N-(4-(bicyclo[1.1.1]pentan-1-yl)phenyl)-7-methyl-2,3-dioxo-1,2,3,4-tetrahydropyrido[2,3-b]pyrazine-6-sulfonamide]	> 7.52	6.00 to 7.00
Cc1cc2[nH]c(=O)c(=O)[nH]c2nc1S(=O)(=O)Nc1ccc2ccccc2c1 [Compound 24, 7-methyl-N-(naphthalen-2-yl)-2,3-dioxo-1,2,3,4-tetrahydropyrido[2,3-b]pyrazine-6-sulfonamide]	6.00 to 7.00	6.00 to 7.00
O=c1[nH]c2cc(Br)c(S(=O)(=O)Nc3ccc(OC(F)(F)F)cc3)nc2[nH]c1=O [Compound 25, 7-bromo-2,3-dioxo-N-(4-(trifluoromethoxy)phenyl)-1,2,3,4-tetrahydropyrido[2,3-b]pyrazine-6-sulfonamide]	7.00 to 7.52	6.00 to 7.00
O=c1[nH]c2ccc(S(=O)(=O)Nc3ccc(OC(F)(F)F)cc3)nc2[nH]c1=O [Compound 26, 2,3-dioxo-N-(4-(trifluoromethoxy)phenyl)-1,2,3,4-tetrahydropyrido[2,3-b]pyrazine-6-sulfonamide]	6.00 to 7.00	6.00 to 7.00
C=C(C)c1cc2[nH]c(=O)c(=O)[nH]c2nc1S(=O)(=O)Nc1ccc(OC(F)(F)F)cc1 [Compound 27, 2,3-dioxo-7-(prop-1-en-2-yl)-N-(4-(trifluoromethoxy)phenyl)-1,2,3,4-tetrahydropyrido[2,3-b]pyrazine-6-sulfonamide]	> 7.52	> 7.52
Cc1nc2ccc(-c3ccc(NS(=O)(=O)c4ccc5[nH]c(=O)c(=O)[nH]c5n4)cc3Cl)cc2o1 [Compound 28, N-(3-chloro-4-(2-methylbenzo[d]oxazol-6-yl)phenyl)-2,3-dioxo-1,2,3,4-tetrahydropyrido[2,3-b]pyrazine-6-sulfonamide]	> 7.52	6.00 to 7.00
O=c1[nH]c2ccc(S(=O)(=O)Nc3ccc(-c4ccc(F)cc4)c(Cl)c3)nc2[nH]c1=O [Compound 29, N-(2-chloro-4′-fluoro-[1,1′-biphenyl]-4-yl)-2,3-dioxo-1,2,3,4-tetrahydropyrido[2,3-b]pyrazine-6-sulfonamide]	6.00 to 7.00	5.22 to 6.00
Cc1nc2ccc(-c3ccc(NS(=O)(=O)c4ccc5[nH]c(=O)c(=O)[nH]c5n4)cc3Cl)cc2[nH]1 [Compound 30, N-(3-chloro-4-(2-methyl-1H-benzo[d]imidazol-6-yl)phenyl)-2,3-dioxo-1,2,3,4-tetrahydropyrido[2,3-b]pyrazine-6-sulfonamide]	5.46 to 6.00	–
Cc1nc2cc(-c3ncc(NS(=O)(=O)c4ccc5[nH]c(=O)c(=O)[nH]c5n4)cc3Cl)ccc2o1 [Compound 31, N-(5-chloro-6-(2-methylbenzo[d]oxazol-5-yl)pyridin-3-yl)-2,3-dioxo-1,2,3,4-tetrahydropyrido[2,3-b]pyrazine-6-sulfonamide]	6.00 to 7.00	5.22 to 6.00
Cc1cc2[nH]c(=O)c(=O)[nH]c2nc1S(=O)(=O)Nc1ccc(-c2ccc(F)cc2)c(C(F)(F)F)c1 [Compound 32, N-(4′-fluoro-2-(trifluoromethyl)-[1,1′-biphenyl]-4-yl)-7-methyl-2,3-dioxo-1,2,3,4-tetrahydropyrido[2,3-b]pyrazine-6-sulfonamide]	6.00 to 7.00	6.00 to 7.00
Cc1cc(NS(=O)(=O)c2nc3[nH]c(=O)c(=O)[nH]c3cc2C)ccc1-c1ccc(F)cc1 [Compound 33, N-(4′-fluoro-2-methyl-[1,1′-biphenyl]-4-yl)-7-methyl-2,3-dioxo-1,2,3,4-tetrahydropyrido[2,3-b]pyrazine-6-sulfonamide]	6.00 to 7.00	7.00 to 7.52
CC(C)c1cc2[nH]c(=O)c(=O)[nH]c2nc1S(=O)(=O)Nc1ccc(OC(F)(F)F)cc1 [Compound 34, 7-isopropyl-2,3-dioxo-N-(4-(trifluoromethoxy)phenyl)-1,2,3,4-tetrahydropyrido[2,3-b]pyrazine-6-sulfonamide]	7.00 to 7.52	6.00 to 7.00
Cc1nc2cc(-c3ncc(NS(=O)(=O)c4nc5[nH]c(=O)c(=O)[nH]c5cc4C)cc3Cl)ccc2o1 [Compound 35, N-(5-chloro-6-(2-methylbenzo[d]oxazol-5-yl)pyridin-3-yl)-7-methyl-2,3-dioxo-1,2,3,4-tetrahydropyrido[2,3-b]pyrazine-6-sulfonamide]	> 7.52	6.00 to 7.00
Cc1cc2[nH]c(=O)c(=O)[nH]c2nc1S(=O)(=O)Nc1cnc(-c2ccc3c(c2)NC(=O)CO3)c(Cl)c1 [Compound 36, N-(5-chloro-6-(3-oxo-3,4-dihydro-2H-benzo[b][1,4]oxazin-6-yl)pyridin-3-yl)-7-methyl-2,3-dioxo-1,2,3,4-tetrahydropyrido[2,3-b]pyrazine-6-sulfonamide]	7.00 to 7.52	5.22 to 6.00
Cc1cc2[nH]c(=O)c(=O)[nH]c2nc1S(=O)(=O)Nc1ccc(-c2ccc3oc(C(C)C)nc3c2)c(Cl)c1 [Compound 37, N-(3-chloro-4-(2-isopropylbenzo[d]oxazol-5-yl)phenyl)-7-methyl-2,3-dioxo-1,2,3,4-tetrahydropyrido[2,3-b]pyrazine-6-sulfonamide]	> 7.52	6.00 to 7.00
Cc1nc2cc(-c3ccc(NS(=O)(=O)c4nc5[nH]c(=O)c(=O)[nH]c5cc4C)cc3C(F)(F)F)ccc2o1 [Compound 38, 7-methyl-N-(4-(2-methylbenzo[d]oxazol-5-yl)-3-(trifluoromethyl)phenyl)-2,3-dioxo-1,2,3,4-tetrahydropyrido[2,3-b]pyrazine-6-sulfonamide]	> 7.52	6.00 to 7.00
